Data as given in patent publication US20250313548A1 (Actio Biosciences, Inc., priority 2023, published 2025).

The compounds below were run against human, KCNT1 (Homo sapiens (Human), UniProt Q5JUK3) (assay: FLIPR Tl/K Flux Assay). Settings: HEK293 cells stably expressing human KCNT1; Tl+ flux stimulated with EC80 of agonist Loxapine.
Assay type: cell-based
Outline: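 HEK293 cells stably expressing human KCNT1 were loaded with FLIPR potassium dye in HEPES/HBSS pH 7.4 with 5 mM probenecid, 1 h at 25 °C, then given test compound for 30 min at 25 °C. Tl+ flux was triggered with chloride-free buffer containing Tl+ and EC80 loxapine and read 160 s. IC50 came from Hill fits of % inhibition.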

human, KCNT1, sequence (Q5JUK3 whole entry): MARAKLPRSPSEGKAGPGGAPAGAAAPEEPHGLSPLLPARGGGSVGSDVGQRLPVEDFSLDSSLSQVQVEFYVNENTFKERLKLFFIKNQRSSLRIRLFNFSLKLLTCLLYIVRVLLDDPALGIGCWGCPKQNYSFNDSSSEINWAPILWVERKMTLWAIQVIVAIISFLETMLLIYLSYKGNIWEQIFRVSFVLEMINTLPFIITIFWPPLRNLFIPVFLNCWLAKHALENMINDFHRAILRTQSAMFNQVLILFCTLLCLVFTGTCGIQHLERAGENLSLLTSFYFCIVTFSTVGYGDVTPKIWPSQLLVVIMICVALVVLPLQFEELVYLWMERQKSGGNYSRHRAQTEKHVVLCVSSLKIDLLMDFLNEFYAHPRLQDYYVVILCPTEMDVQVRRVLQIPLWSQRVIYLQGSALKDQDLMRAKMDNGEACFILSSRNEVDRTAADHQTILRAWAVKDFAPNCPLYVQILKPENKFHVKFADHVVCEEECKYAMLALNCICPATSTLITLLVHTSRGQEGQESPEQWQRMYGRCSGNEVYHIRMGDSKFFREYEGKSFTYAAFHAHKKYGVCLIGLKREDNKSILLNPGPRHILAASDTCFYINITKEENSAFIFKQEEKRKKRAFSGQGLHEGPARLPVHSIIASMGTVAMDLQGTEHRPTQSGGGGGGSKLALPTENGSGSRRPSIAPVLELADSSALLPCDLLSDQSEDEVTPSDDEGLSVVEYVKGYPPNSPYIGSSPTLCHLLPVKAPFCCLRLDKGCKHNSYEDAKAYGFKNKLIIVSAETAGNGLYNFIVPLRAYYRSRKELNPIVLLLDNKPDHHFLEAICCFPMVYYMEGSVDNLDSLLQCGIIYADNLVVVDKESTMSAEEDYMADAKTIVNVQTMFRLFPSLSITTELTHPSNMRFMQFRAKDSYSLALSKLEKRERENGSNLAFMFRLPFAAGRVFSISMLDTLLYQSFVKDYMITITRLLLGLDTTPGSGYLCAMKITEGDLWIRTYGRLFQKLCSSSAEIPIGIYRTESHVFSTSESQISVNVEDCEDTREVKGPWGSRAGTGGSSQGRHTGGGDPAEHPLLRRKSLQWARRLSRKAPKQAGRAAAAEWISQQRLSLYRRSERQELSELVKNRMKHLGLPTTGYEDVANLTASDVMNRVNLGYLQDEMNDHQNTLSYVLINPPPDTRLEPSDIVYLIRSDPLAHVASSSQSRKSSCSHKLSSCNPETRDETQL

`O=C(N[C@H]1CCn2nc(-c3ccnc(C(F)(F)F)c3)cc21)C12CC(F)(C1)C2` [Compound I-489a, (S)-3-Fluoro-N-(2-(2-(trifluoromethyl)pyridin-4-yl)-5,6-dihydro-4H-pyrrolo[1,2-b]pyrazol-4-yl)bicyclo[1.1.1]pentane-1-carboxamide] and `O=C(N[C@H]1CCCn2nc(-c3ccnc(C(F)(F)F)c3)cc21)C12CC(C(F)(F)F)(C1)C2` [Compound I-501a, (S)-3-(Trifluoromethyl)-N-(2-(2-(trifluoromethyl)pyridin-4-yl)-4,5,6,7-tetrahydropyrazolo[1,5-a]pyridin-4-yl)bicyclo[1.1.1]pentane-1-carboxamide] cannot be ordered by IC50: < 0.25 µM for the first, < 0.25 µM for the second.

`O=C(N[C@H]1CCCc2oc(-c3ccnc(C(F)(F)F)c3)nc21)c1cccc(C(F)(F)F)c1` [Compound I-251a, (S)-3-(Trifluoromethyl)-N-(2-(2-(trifluoromethyl)pyridin-4-yl)-4,5,6,7-tetrahydrobenzo[d]oxazol-4-yl)benzamide] and `Cc1cc(C(=O)N[C@H]2CCCc3oc(-c4ccnc(C(F)(F)F)c4)nc32)cc(C(F)(F)F)c1` [Compound I-250a, (S)-3-Methyl-5-(trifluoromethyl)-N-(2-(2-(trifluoromethyl)pyridin-4-yl)-4,5,6,7-tetrahydrobenzo[d]oxazol-4-yl)benzamide] cannot be ordered by IC50: < 0.25 µM for the first, < 0.25 µM for the second.

First: Cn1nc(C(F)(F)F)cc1C(=O)NC1CCCn2nc(-c3ccnc(C(F)(F)F)c3)cc21 (racemic) [Compound I-42, (rac)-1-Methyl-3-(trifluoromethyl)-N-(2-(2-(trifluoromethyl)pyridin-4-yl)-4,5,6,7-tetrahydropyrazolo[1,5-a]pyridin-4-yl)-1H-pyrazole-5-carboxamide]
Second: Cn1nc(C(F)(F)F)cc1C(=O)N[C@H]1CCCn2nc(-c3cnnc(C(F)(F)F)c3)cc21 [Compound I-307a, (S)-1-Methyl-3-(trifluoromethyl)-N-(2-(6-(trifluoromethyl)pyridazin-4-yl)-4,5,6,7-tetrahydropyrazolo[1,5-a]pyridin-4-yl)-1H-pyrazole-5-carboxamide]
The IC50 of the first is lower: < 0.25 µM for the first, 0.5 to 1 µM for the second. The first is the more potent here.

`CCc1cc(C#N)cc(C(=O)N[C@H]2CCCCn3nc(-c4ccnc(C(F)(F)F)c4)cc32)c1` [Compound I-244a, (S)-3-Cyano-5-ethyl-N-(2-(2-(trifluoromethyl)pyridin-4-yl)-5,6,7,8-tetrahydro-4H-pyrazolo[1,5-a]azepin-4-yl)benzamide] and `CCOc1cc(F)cc(C(=O)N[C@H]2CCCn3nc(-c4ccnc(C(F)(F)F)c4)cc32)c1` [Compound I-579a] cannot be ordered by IC50: < 0.25 µM for the first, < 0.25 µM for the second.

First: Cn1nc(C(F)(F)F)cc1C(=O)N[C@@H]1CCCc2nn(-c3ccnc(C(F)(F)F)c3)cc21 [Compound I-4b, (R)-1-Methyl-3-(trifluoromethyl)-N-(2-(2-(trifluoromethyl)pyridin-4-yl)-4,5,6,7-tetrahydro-2H-indazol-4-yl)-1H-pyrazole-5-carboxamide]
Second: Cn1nc(C(F)(F)F)cc1C(=O)N[C@H]1CCCc2nn(-c3ccnc(C(F)(F)F)c3)cc21 [Compound I-4a, (S)-1-Methyl-3-(trifluoromethyl)-N-(2-(2-(trifluoromethyl)pyridin-4-yl)-4,5,6,7-tetrahydro-2H-indazol-4-yl)-1H-pyrazole-5-carboxamide]
The IC50 of the first is higher: > 1 µM for the first, < 0.25 µM for the second. The second is the more potent here.

`Cn1nc(C2CC2)nc1C(=O)N[C@H]1CCn2nc(-c3ccnc(C(F)(F)F)c3)cc21` [Compound I-224a, (S)-3-Cyclopropyl-1-methyl-N-(2-(2-(trifluoromethyl)pyridin-4-yl)-5,6-dihydro-4H-pyrrolo[1,2-b]pyrazol-4-yl)-1H-1,2,4-triazole-5-carboxamide] and `Cn1nc(C2CCC2)cc1C(=O)N[C@H]1CCCn2nc(-c3ccnc(C(F)(F)F)c3)cc21` [Compound I-362a] cannot be ordered by IC50: < 0.25 µM for the first, < 0.25 µM for the second.

`Cn1ncc(C(=O)N[C@H]2CCCn3nc(-c4ccnc(C(F)(F)F)c4)cc32)c1C(F)F` [Compound I-421a] and `O=C(N[C@H]1CCCn2nc(-c3ccnc(C(F)(F)F)c3)cc21)c1cnn(C(F)(F)F)c1` [Compound I-399a] cannot be ordered by IC50: < 0.25 µM for the first, < 0.25 µM for the second.

Going from `Cc1cccc(C(=O)N[C@@H]2CCc3nn(-c4ccnc(C(F)(F)F)c4)cc32)c1` [Compound I-97b] to `Cn1nc(C(F)(F)F)cc1C(=O)NC1CCc2nn(-c3ccnc(C(F)(F)F)c3)cc21` (racemic) [Compound I-1, (rac)-1-Methyl-3-(trifluoromethyl)-N-(2-(2-(trifluoromethyl)pyridin-4-yl)-2,4,5,6-tetrahydrocyclopenta[c]pyrazol-4-yl)-1H-pyrazole-5-carboxamide], the IC50 falls from > 1 µM to < 0.25 µM. The second is the more potent here.

First: Cn1nc(C(F)(F)F)cc1C(=O)N[C@@H]1CCc2nn(-c3ccnc(OC(F)F)c3)cc21 [Compound I-74b]
Second: Cn1nc(C(F)(F)F)cc1C(=O)N[C@H]1CCc2nn(-c3ccnc(C(C)(F)F)c3)cc21 [Compound I-77a, (S)—N-(2-(2-(1,1-Difluoroethyl)pyridin-4-yl)-2,4,5,6-tetrahydrocyclopenta[c]pyrazol-4-yl)-1-methyl-3-(trifluoromethyl)-1H-pyrazole-5-carboxamide]
The IC50 of the first is higher: > 1 µM for the first, < 0.25 µM for the second.

First: Cn1nc(C(F)(F)F)cc1C(=O)N[C@H]1CCCCc2nn(-c3ccnc(C(F)(F)F)c3)cc21 [Compound I-45a, (S)-1-methyl-3-(trifluoromethyl)-N-(2-(2-(trifluoromethyl)pyridin-4-yl)-2,4,5,6,7,8-hexahydrocyclohepta[c]pyrazol-4-yl)-1H-pyrazole-5-carboxamide]
Second: Cn1nc(C(F)(F)F)cc1C(=O)N[C@H]1CCCc2cn(-c3ccnc(C(F)(F)F)c3)nc21 [Compound I-87a]
The IC50 of the first is lower: < 0.25 µM for the first, 0.5 to 1 µM for the second. The first is the more potent here.

`N#Cc1cc(F)cc(C(=O)N[C@H]2CCCc3oc(-c4ccnc(C(F)(F)F)c4)nc32)c1` [Compound I-298a, (S)-3-Cyano-5-fluoro-N-(2-(2-(trifluoromethyl)pyridin-4-yl)-4,5,6,7-tetrahydrobenzo[d]oxazol-4-yl)benzamide] and `COc1cc(-c2nc3c(o2)CCC[C@@H]3NC(=O)c2cccc(C(F)(F)F)c2)ccn1` [Compound I-249a, (S)-N-(2-(2-Methoxypyridin-4-yl)-4,5,6,7-tetrahydrobenzo[d]oxazol-4-yl)-3-(trifluoromethyl)benzamide] cannot be ordered by IC50: < 0.25 µM for the first, < 0.25 µM for the second.

`O=C(N[C@H]1CCCCn2nc(-c3ccnc(C(F)(F)F)c3)cc21)c1cc(Cl)cc(C(F)(F)F)c1` [Compound I-387a] and `O=C(N[C@H]1CCCn2nc(-c3ccnc(C4CC4)c3)cc21)c1cc(Cl)cc(C(F)(F)F)c1` [Compound I-111a] cannot be ordered by IC50: < 0.25 µM for the first, < 0.25 µM for the second.

`O=C(N[C@H]1CCCCc2nn(-c3ccnc(C(F)(F)F)c3)cc21)c1cc(Cl)cc(C(F)(F)F)c1` (single isomer, unassigned) [Compound I-109a] and `O=C(N[C@H]1CCc2nc(-c3ccnc(C(F)(F)F)c3)ccc21)c1cccc(C(F)(F)F)c1` [Compound I-133a, (S)-3-(Trifluoromethyl)-N-(2-(2-(trifluoromethyl)pyridin-4-yl)-6,7-dihydro-5H-cyclopenta[b]pyridin-5-yl)benzamide] cannot be ordered by IC50: < 0.25 µM for the first, < 0.25 µM for the second.

Compared with `Cn1nc(C(F)(F)F)cc1C(=O)N[C@H]1CCCc2nn(-c3ccnc(C#N)c3)cc21` [Compound I-375a], `Cn1nc(C(F)(F)F)cc1C(=O)N[C@H]1CCc2nn(-c3ccnc(C4CC4)c3)cc21` [Compound I-71a] is lower in IC50: > 1 µM for the first, < 0.25 µM for the second. The second is the more potent here.

`CC(C)c1cc(-c2cc3n(n2)CCC[C@@H]3NC(=O)c2cc(C(F)(F)F)nn2C)ccn1` [Compound I-429a] and `COc1cc(-c2cc3n(n2)CCC[C@@H]3NC(=O)c2cc(C(F)(F)F)nn2C)ccn1` [Compound I-366a] cannot be ordered by IC50: < 0.25 µM for the first, < 0.25 µM for the second.

`COc1cc(-c2cc3n(n2)CCC[C@@H]3NC(=O)c2cc(F)cc(C#N)c2)ccn1` [Compound I-313a, (S)-3-Cyano-5-fluoro-N-(2-(2-methoxypyridin-4-yl)-4,5,6,7-tetrahydropyrazolo[1,5-a]pyridin-4-yl)benzamide] and `COc1cc(C(=O)N[C@H]2CCCn3nc(-c4ccnc(C(F)(F)F)c4)cc32)ccn1` [Compound I-330a, (S)-2-Methoxy-N-(2-(2-(trifluoromethyl)pyridin-4-yl)-4,5,6,7-tetrahydropyrazolo[1,5-a]pyridin-4-yl)isonicotinamide] cannot be ordered by IC50: < 0.25 µM for the first, < 0.25 µM for the second.

`CC(C)c1cc(-n2cc3c(n2)CC[C@H]3NC(=O)c2cc(C(F)(F)F)nn2C)ccn1` [Compound I-70b] and `CC(C)(C)CC(=O)N[C@@H]1CCc2nn(-c3ccnc(C(F)(F)F)c3)cc21` [Compound I-103b] cannot be ordered by IC50: > 1 µM for the first, > 1 µM for the second.

`O=C(N[C@H]1CCCn2nc(-c3ccnc(C(F)(F)F)c3)cc21)c1cnc(C(F)(F)F)cn1` [Compound I-582a, (S)-5-(Trifluoromethyl)-N-(2-(2-(trifluoromethyl)pyridin-4-yl)-4,5,6,7-tetrahydropyrazolo[1,5-a]pyridin-4-yl)pyrazine-2-carboxamide] and `O=C(N[C@H]1CCn2nc(-c3ccnc(C4CC4)c3)cc21)c1ccc(C(F)(F)F)nc1` [Compound I-66a] cannot be ordered by IC50: < 0.25 µM for the first, < 0.25 µM for the second.

`O=C(N[C@H]1CCCc2oc(-c3ccnc(C(F)(F)F)c3)nc21)c1cnn(C(F)(F)F)c1C(F)(F)F` [Compound I-531a, (S)-1,5-bis(trifluoromethyl)-N-(2-(2-(trifluoromethyl)pyridin-4-yl)-4,5,6,7-tetrahydrobenzo[d]oxazol-4-yl)-1H-pyrazole-4-carboxamide] and `Cn1nc(C(F)(F)F)nc1C(=O)N[C@H]1CCCc2oc(-c3cc(C4CC4)ncc3F)nc21` [Compound I-191a, (S)—N-(2-(2-Cyclopropyl-5-fluoropyridin-4-yl)-4,5,6,7-tetrahydrobenzo[d]oxazol-4-yl)-1-methyl-3-(trifluoromethyl)-1H-1,2,4-triazole-5-carboxamide] cannot be ordered by IC50: < 0.25 µM for the first, < 0.25 µM for the second.

For `COc1cc(-c2cc3n(n2)CC[C@@H]3NC(=O)c2cncc(C(F)(F)F)n2)c(F)cn1` [Compound I-576a, (S)-N-(2-(5-Fluoro-2-methoxypyridin-4-yl)-5,6-dihydro-4H-pyrrolo[1,2-b]pyrazol-4-yl)-6-(trifluoromethyl)pyrazine-2-carboxamide], the IC50 was < 0.25 µM.
